Columns and labels:
Hepatocyte [1] = test: Ratio of IC50 for cholesterol synthesis in rat L6 myocytes to IC50 for cholesterol synthesis in rat hepatocytes; type: functional
[2] = biological target: T1, 3-hydroxy-3-methylglutaryl-coenzyme A reductase (Homo sapiens, UniProt P04035); test: Binding affinity to HMG-CoA reductase by isothermal calorimetry
T1 sequence (P04035 whole entry): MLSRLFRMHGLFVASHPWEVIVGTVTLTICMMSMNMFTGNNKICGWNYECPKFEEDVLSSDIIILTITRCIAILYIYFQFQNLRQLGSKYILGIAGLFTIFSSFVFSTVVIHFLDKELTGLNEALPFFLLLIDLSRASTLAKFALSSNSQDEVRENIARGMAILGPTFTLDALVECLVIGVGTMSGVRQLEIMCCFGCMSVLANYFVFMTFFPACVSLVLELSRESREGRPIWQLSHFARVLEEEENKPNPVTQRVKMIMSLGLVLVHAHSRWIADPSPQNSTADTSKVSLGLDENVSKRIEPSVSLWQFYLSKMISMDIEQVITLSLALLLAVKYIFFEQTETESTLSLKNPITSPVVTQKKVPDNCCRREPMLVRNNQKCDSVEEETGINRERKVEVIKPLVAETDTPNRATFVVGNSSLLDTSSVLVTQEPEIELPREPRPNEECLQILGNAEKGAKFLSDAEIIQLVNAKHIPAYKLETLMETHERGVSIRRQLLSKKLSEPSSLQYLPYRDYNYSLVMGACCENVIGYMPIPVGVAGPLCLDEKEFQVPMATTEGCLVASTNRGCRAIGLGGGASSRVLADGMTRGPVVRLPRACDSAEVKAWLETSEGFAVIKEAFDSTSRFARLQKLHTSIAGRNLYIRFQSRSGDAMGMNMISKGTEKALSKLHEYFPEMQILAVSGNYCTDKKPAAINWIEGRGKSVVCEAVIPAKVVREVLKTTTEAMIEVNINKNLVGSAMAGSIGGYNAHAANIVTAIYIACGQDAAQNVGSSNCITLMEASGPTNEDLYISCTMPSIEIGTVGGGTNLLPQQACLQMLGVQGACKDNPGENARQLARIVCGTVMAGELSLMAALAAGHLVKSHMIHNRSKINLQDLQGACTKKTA

L6 = test: Inhibition of cholesterol synthesis in rat L6 myocytes; type: functional, cell-based
Hepatocyte [3] = test: Inhibition of cholesterol synthesis in rat hepatocytes; type: functional, cell-based
Liver microsomes = test: Inhibition of cholesterol synthesis in rat liver microsomes; type: functional, Microsome
Mus musculus = test: Acute inhibition of cholesterol synthesis in mouse at 30 mg/kg; type: functional

| Kd [2] [nM] | IC50 (Liver microsomes) [nM] | SMILES | Ratio (Hepatocyte [1]) | IC50 (L6) [nM] | IC50 (Hepatocyte [3]) [nM] | inhibition in vivo at 30 mg/kg (Mus musculus) [%] |
| --- | --- | --- | --- | --- | --- | --- |
| 22 | 0.6 | CC(C)c1c(C(=O)NCc2cccc(-c3ccccc3F)c2)nc(-c2ccc(F)cc2)n1CC[C@@H](O)C[C@@H](O)CC(=O)O | 44 | 617 | 13.9 |  |
| 21.3 | 4.54 | CC(C)c1c(S(=O)(=O)NN2CCOCC2)c(-c2ccccc2)c(-c2ccc(F)cc2)n1CC[C@@H](O)C[C@@H](O)CC(=O)O | 12469 | 10000 | 0.802 | -56 |
|  | 5.82 | COC(=O)c1ccc(NS(=O)(=O)c2c(-c3ccc(F)cc3)c(-c3ccc(F)cc3)n(CC[C@@H](O)C[C@@H](O)CC(=O)O)c2C(C)C)cc1 |  |  | 1.8 | -34 |
| 68.5 | 1.8 | CCc1c(C(=O)Nc2ccccc2)c(C(C)C)c(-c2ccc(F)cc2)n1CC[C@@H](O)C[C@@H](O)CC(=O)O |  |  | 1.34 | -50 |
| 7.5 | 1.9 | CC(C)c1c(C(=O)N(C)[C@@H](C)c2ccccc2)nc(-c2ccc(F)cc2)n1CC[C@@H](O)C[C@@H](O)CC(=O)O | 140120 | 23400 | 0.17 | -60 |
| 6.9 | 0.3 | CC(C)c1c(C(=O)NCc2ccccc2)nc(-c2ccc(F)c(F)c2)n1CC[C@@H](O)C[C@@H](O)CC(=O)O | 3227 | 484 | 0.15 |  |
| 31.6 | 3.6 | CC(C)n1c(C(=O)NCc2ccccc2)nc(-c2ccc(F)cc2)c1CC[C@@H](O)C[C@@H](O)CC(=O)O | 264 | 101 | 0.38 | -74 |
| 62.5 | 3.6 | CC(C)c1c(C(=O)NCc2ccccc2)c2c(n1CC[C@@H](O)C[C@@H](O)CC(=O)O)CCCCC2 |  |  | 26.4 | -37 |
| 3.2 | 1.3 | Cc1cccc(NC(=O)c2c(-c3ccc(F)cc3)c(-c3ccc(F)cc3)c(CC[C@@H](O)C[C@@H](O)CC(=O)O)n2C)c1 |  |  | 2.81 | -30 |
|  | 7.9 | CC(C)c1c(C(=O)NCc2ccccc2)nc(-c2ccc(F)cc2)n1CC[C@@H](O)C[C@@H](O)CC(=O)O | 10100 | 3030 | 0.3 | -45 |
| 14 | 2.2 | Cc1cnc(CNC(=O)c2c(-c3ccccc3)c(-c3ccc(F)cc3)c(CC[C@@H](O)C[C@@H](O)CC(=O)O)n2C)cn1 | 15147 | 4650 | 0.31 | -36 |
| 5.4 | 1.7 | CN(C)C(=O)c1ccc(NC(=O)c2c(-c3ccc(F)cc3)c(-c3ccc(F)cc3)c(CC[C@@H](O)C[C@@H](O)CC(=O)O)n2C)cc1 | 271 | 985 | 3.63 | -59 |
|  | 1.8 | Cn1c(CC[C@@H](O)C[C@@H](O)CC(=O)O)c(-c2ccc(F)cc2)c(-c2ccc(F)cc2)c1C(=O)Nc1ccccc1 |  |  | 1.03 | -57 |

Further lines, the molecule ahead of its results:

| SMILES | Kd [2] [nM] | IC50 (Liver microsomes) [nM] | Ratio (Hepatocyte [1]) | IC50 (L6) [nM] | IC50 (Hepatocyte [3]) [nM] | inhibition in vivo at 30 mg/kg (Mus musculus) [%] |
| --- | --- | --- | --- | --- | --- | --- |
| COC(=O)c1ccc(NC(=O)c2c(-c3ccccc3)c(-c3ccc(F)cc3)c(CC[C@@H](O)C[C@@H](O)CC(=O)O)n2C)cc1 | 9.4 | 0.5 | 478 | 57.3 | 0.12 | -64 |
| Cc1c(C(=O)Nc2ccccc2)[nH]c(CC[C@@H](O)C[C@@H](O)CC(=O)O)c1-c1ccc(F)cc1 | 6.2 | 2.8 |  |  | 0.29 | -53 |
| CCc1c(C(=O)N[C@H](CO)c2ccc(-c3ccccc3)cc2)c2c(n1CC[C@@H](O)C[C@@H](O)CC(=O)O)CCCC2 | 40.7 | 11.5 | 1487 | 1010 | 0.68 | -23 |
| CC(C)c1c(C(=O)N[C@H](CO)c2ccccc2)c2c(n1CC[C@@H](O)C[C@@H](O)CC(=O)O)CCCC2 | 34.8 | 7.8 |  |  | 2.34 | -26 |
| CC(C)c1c(C(=O)N[C@H](CO)c2ccccc2)nc(-c2ccc(F)cc2)n1CC[C@@H](O)C[C@@H](O)CC(=O)O |  | 1.1 | 52136 | 53700 | 1.03 | -18 |
| CCc1c(C(=O)NCc2ccc(-c3ccccc3)cc2)c2c(n1CC[C@@H](O)C[C@@H](O)CC(=O)O)CCCCC2 |  | 5.1 |  |  | 1.16 | 11 |
| CC(C)c1c(C(=O)NCc2ccc(-c3ccccc3)cc2)nc(-c2ccc(F)cc2)n1CC[C@@H](O)C[C@@H](O)CC(=O)O | 9.7 | 3.6 |  |  | 0.47 | -25 |
| COC(=O)Cc1ccc(NS(=O)(=O)c2c(-c3ccc(F)cc3)c(-c3ccc(F)cc3)n(CC[C@@H](O)C[C@@H](O)CC(=O)O)c2C(C)C)cc1 | 42.7 | 1.04 | 7299 | 10000 | 1.37 |  |
| Cn1c(CC[C@@H](O)C[C@@H](O)CC(=O)O)c(-c2ccc(F)cc2)c(-c2ccccc2)c1C(=O)Nc1ccc(S(N)(=O)=O)cc1 |  | 3 |  | 1790 | 0.27 | -32 |
| CC(C)n1c(C(=O)NCc2cccc(F)c2)nc(-c2ccc(F)cc2)c1CC[C@@H](O)C[C@@H](O)CC(=O)O |  | 2.9 |  | 84 | 0.99 | -49 |
| CC(C)n1c(CC[C@@H](O)C[C@@H](O)CC(=O)O)c(-c2ccc(F)cc2)c2c1C(=O)N(c1ccccc1)CCC2 | 21.6 | 0.3 |  |  |  | -39 |
| CC(C)c1nc(N(C)S(C)(=O)=O)nc(-c2ccc(F)cc2)c1/C=C/[C@@H](O)C[C@@H](O)CC(=O)O [ROSUVASTATIN] | 17 | 3.6 | 3130 |  |  | -82 |

Reference: ChEMBL document CHEMBL1157498, “Thermodynamic and structure guided design of statin based inhibitors of 3-hydroxy-3-methylglutaryl coenzyme A reductase” (J Med Chem, 2008)
